The record followed here is ChEMBL document CHEMBL1201862, “PubChem BioAssay data set” (2004).

Structures are written as SMILES.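 Values below derive from 48-hour exposures of cells grown in 96-well plates, with endpoints linearly interpolated between the two concentrations bracketing the appropriate inhibition level. GI50 marks 50% less growth.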 The source made the active and inactive calls. Cut-off read from the data, not from the text of the source: active = GI50 up to about 1.1 µM and inactive = higher. Bounds are passed on as bounds.

Test systems include A549; ACHN; BT-549; COLO 205; DU-145; EKVX; HCC 2998; HOP-92; K562; KM12; NCI-H460; SF-539; SK-MEL-28; SK-MEL-5; SN12C; SNB-19; SR; TK-10; UACC-257; UACC-62.
What all share (test): NCI anticancer screen, dose series, 48 h

In the case of `COC(=O)c1c(O)ccc2c1c1cc3ccccc3c(O)c1n2Cc1ccccc1Cl`, the GI50 with A549 is 23.5 µM (inactive); in the assay on ACHN it was 22.4 µM (inactive); in the assay on BT-549 it was 32.8 µM (inactive); with COLO 205, 16.8 µM (inactive); in the assay on DU-145, 31.3 µM (inactive); in the assay on EKVX, 25.8 µM (inactive). Also, the GI50 in the assay with HCC 2998 was 20 µM (inactive); with HOP-92, 16.9 µM (inactive); in the assay on K562, 31.5 µM (inactive); in the assay with KM12, 19.3 µM (inactive); in the assay with NCI-H460, 18.2 µM (inactive); in the assay on SF-539 it was 17.3 µM (inactive). For the same compound, the GI50 in the assay with SK-MEL-28 is 14.5 µM (inactive); in the assay on SK-MEL-5 it was 19.1 µM (inactive); in the assay on SN12C, 32.7 µM (inactive); in the assay with SNB-19, 59.4 µM (inactive); in the assay on SR it was 25.4 µM (inactive); in the assay on TK-10 it was 37.2 µM (inactive). In addition, the GI50 was 47.5 µM (inactive) in the assay with UACC-257 and 23.4 µM (inactive) with UACC-62.
As for `COc1ccc(/C=C/C(=O)Oc2ccccc2OC)cc1`, the GI50 with A549 was 37.8 µM (inactive); in the assay on ACHN, > 27.6 µM (inactive); in the assay with BT-549, 67 µM (inactive); in the assay with COLO 205, 7.26 µM (inactive); in the assay on DU-145, > 61.8 µM (inactive); with EKVX, 37.8 µM (inactive). Also, the GI50 in the assay with HCC 2998 is 16.6 µM (inactive); in the assay on HOP-92 it was > 48.2 µM (inactive); with K562, 23.8 µM (inactive); with KM12, 9.04 µM (inactive); with NCI-H460, > 100 µM (inactive); in the assay on SF-539, 53.2 µM (inactive). Besides, the GI50 in the assay on SK-MEL-28 was 73.5 µM (inactive); with SK-MEL-5, 30.7 µM (inactive); in the assay on SN12C it was 13.9 µM (inactive); in the assay with SNB-19, 50.2 µM (inactive); with SR, 6.73 µM (inactive); in the assay with TK-10, > 81.8 µM (inactive). Further, the GI50 is > 60.7 µM (inactive) with UACC-257 and 54.5 µM (inactive) in the assay with UACC-62.
`CC1=CC(=O)/C(=C/NC(=S)C(N)=S)C(=O)O1`: the GI50 with A549, with ACHN, with BT-549, with COLO 205, in the assay on DU-145 and with EKVX was > 100 µM (inactive) throughout. Further, the GI50 in the assay on HCC 2998, with HOP-92, in the assay with K562, in the assay on KM12, in the assay with NCI-H460 and with SF-539 was > 100 µM (inactive) in each case. For the same compound, the GI50 is > 100 µM (inactive) with SK-MEL-28; > 100 µM (inactive) with SK-MEL-5; > 100 µM (inactive) in the assay with SN12C; > 100 µM (inactive) in the assay on SNB-19; 47.2 µM (inactive) with SR; > 100 µM (inactive) with TK-10. Moreover, the GI50 in the assay with UACC-257 and in the assay with UACC-62 was > 100 µM (inactive) in each case.
In the case of `CC(=O)OC1=CC2=CC[C@H]3[C@@H]4CCC(=O)[C@@]4(C)CC(=O)[C@]3(S)[C@@]2(C)CC1`, the GI50 is 49.4 µM (inactive) in the assay with A549; 34.2 µM (inactive) in the assay with ACHN; 35 µM (inactive) in the assay with BT-549; 32.4 µM (inactive) in the assay on COLO 205; 62.5 µM (inactive) in the assay on DU-145; > 100 µM (inactive) in the assay with EKVX. For the same compound, the GI50 in the assay with HCC 2998 is 31.6 µM (inactive); in the assay with HOP-92, 24.8 µM (inactive); with K562, 25.1 µM (inactive); in the assay with KM12 it was 26.3 µM (inactive); with NCI-H460, 25.2 µM (inactive); in the assay on SF-539, 20 µM (inactive). The GI50 with SK-MEL-28 was 55 µM (inactive); in the assay with SK-MEL-5 it was 31.6 µM (inactive); in the assay with SN12C it was 37.6 µM (inactive); in the assay with SNB-19, 79.8 µM (inactive); in the assay with SR it was 23.6 µM (inactive); in the assay with TK-10, 27.9 µM (inactive). Further, the figures for the GI50 in the assay on UACC-257 and in the assay on UACC-62 were 27.3 µM (inactive) and 26.1 µM (inactive), respectively.
Regarding `COc1cc(C2c3cc4c(cc3OC3(OC)COC(=O)C23)OCO4)cc(OC)c1OC` (stereo not given), the GI50 in the assay with A549 was 0.375 µM (active); in the assay on ACHN it was 0.618 µM (active); in the assay with BT-549, 1.7 µM (inactive); in the assay on COLO 205, 0.251 µM (active); in the assay with DU-145, 0.395 µM (active); in the assay with EKVX, 0.343 µM (active). The GI50 with HCC 2998 is 0.325 µM (active); in the assay on HOP-92, 3.22 µM (inactive); in the assay with K562, 0.23 µM (active); in the assay on KM12 it was 0.129 µM (active); with NCI-H460, 0.38 µM (active); in the assay on SF-539, 0.197 µM (active). For the same compound, the GI50 is 0.4 µM (active) with SK-MEL-28; 0.292 µM (active) in the assay on SK-MEL-5; 0.478 µM (active) in the assay with SN12C; 1.64 µM (inactive) in the assay with SNB-19; 0.272 µM (active) with SR; 1.19 µM (inactive) with TK-10. The GI50 in the assay on UACC-257 is 2.66 µM (inactive); in the assay on UACC-62, 0.311 µM (active).
`CNC(=O)Nc1cc2c3c(c1)CCCN3CCC2`: the GI50 in the assay on A549, in the assay with ACHN, with BT-549, with COLO 205, in the assay with DU-145 and in the assay with EKVX was > 10 µM (inactive) in each case. Moreover, the GI50 in the assay with HCC 2998, in the assay with HOP-92, with K562, in the assay on KM12, in the assay with NCI-H460 and in the assay on SF-539 was > 10 µM (inactive) in each case. Also, the GI50 with SK-MEL-28, with SK-MEL-5, with SN12C, in the assay on SNB-19, with SR and in the assay with TK-10 was > 10 µM (inactive) in each case. The GI50 with UACC-257 and with UACC-62 was > 10 µM (inactive) throughout.
For the compound `NC(=O)c1cccc(/N=c2\oc3ccc(Br)cc3cc2-c2nc3ccccc3[nH]2)c1`, the GI50 in the assay with A549 was 13.1 µM (inactive); in the assay with ACHN, 17.3 µM (inactive); in the assay with BT-549, 13.6 µM (inactive); in the assay with COLO 205 it was 14.6 µM (inactive); in the assay with DU-145, 15.5 µM (inactive); with EKVX, 13.9 µM (inactive). Moreover, the GI50 with HCC 2998 is 15.3 µM (inactive); in the assay on HOP-92 it was 19 µM (inactive); in the assay with K562, 18.8 µM (inactive); in the assay on KM12, 18.5 µM (inactive); with NCI-H460, 15.5 µM (inactive); with SF-539, 2.49 µM (inactive). The GI50 in the assay on SK-MEL-28 was > 100 µM (inactive); with SK-MEL-5, 1.81 µM (inactive); with SN12C, 17.4 µM (inactive); in the assay on SNB-19 it was 14.8 µM (inactive); in the assay with SR it was 5.73 µM (inactive); in the assay on TK-10 it was 17 µM (inactive). Besides, the GI50 in the assay on UACC-257 was 20 µM (inactive); in the assay with UACC-62, 14.4 µM (inactive).
Regarding `O=C1CC(NCc2ccccc2)c2c(Cl)sc(Cl)c21` (stereo not given), the GI50 was 33.3 µM (inactive) in the assay on A549; 22.3 µM (inactive) in the assay with ACHN; 31 µM (inactive) in the assay on BT-549; 21.6 µM (inactive) with COLO 205; 35.8 µM (inactive) in the assay with DU-145; 37.5 µM (inactive) in the assay on EKVX. Further, the GI50 in the assay with HCC 2998 was 17.4 µM (inactive); with HOP-92, 34.8 µM (inactive); in the assay with K562, 16.6 µM (inactive); in the assay on KM12 it was 29.9 µM (inactive); in the assay with NCI-H460 it was > 61.4 µM (inactive); in the assay on SF-539 it was 27.2 µM (inactive). Moreover, the GI50 was 28.1 µM (inactive) in the assay with SK-MEL-28; 27 µM (inactive) in the assay with SK-MEL-5; 26 µM (inactive) with SN12C; 33.7 µM (inactive) with SNB-19; 3.2 µM (inactive) in the assay on SR; 31.3 µM (inactive) with TK-10. In addition, the GI50 with UACC-257 was 19.6 µM (inactive); in the assay with UACC-62, 5.01 µM (inactive).
Regarding `Cc1nc(O)nc2nc3ccc(Cl)cc3c(N(CCO)CCO)c12`, the GI50 in the assay on A549 is > 100 µM (inactive); in the assay with ACHN it was > 100 µM (inactive); in the assay on BT-549 it was > 100 µM (inactive); with COLO 205, > 100 µM (inactive); in the assay with DU-145 it was > 100 µM (inactive); with EKVX it was 0.762 µM (active). Besides, the GI50 with HCC 2998 was > 100 µM (inactive); in the assay on HOP-92, > 100 µM (inactive); in the assay with K562, 85.7 µM (inactive); in the assay with KM12, 40 µM (inactive); in the assay with NCI-H460, 48.2 µM (inactive); with SF-539, > 100 µM (inactive). The GI50 in the assay with SK-MEL-28, in the assay with SK-MEL-5, in the assay on SN12C, in the assay on SNB-19, in the assay with SR and with TK-10 was > 100 µM (inactive) in each case. The GI50 in the assay with UACC-257 and in the assay with UACC-62 was > 100 µM (inactive) in each case.
As for `CN(C)c1cc2ccccc2oc1=O`, the GI50 in the assay with A549, with ACHN, in the assay with BT-549, in the assay with COLO 205, in the assay on DU-145 and in the assay with EKVX was > 100 µM (inactive) throughout. In addition, the GI50 in the assay with HCC 2998, with HOP-92, in the assay on K562, with KM12, in the assay with NCI-H460 and with SF-539 was > 100 µM (inactive) each time. The GI50 in the assay on SK-MEL-28, in the assay on SK-MEL-5, in the assay on SN12C, in the assay with SNB-19, in the assay on SR and in the assay on TK-10 was > 100 µM (inactive) throughout. In addition, the GI50 with UACC-257 and in the assay on UACC-62 was > 100 µM (inactive) each time.
